{
  "source": "patent US6469177B1",
  "about": "“Surface active N-Halamine compounds” (Auburn University, priority 1997, dated 2002)",
  "test_system": "S. aureus (ATCC 6538)",
  "assay": "Efficacy of N-halamine compounds against S. aureus in aqueous solution (Example 20)",
  "type": "cell-based, Staphylococcus aureus",
  "settings": "pH 7.0; 22 ° C.; chlorine-demand-free water; 5 or 10 milligrams/liter total chlorine",
  "description": "The bacterial efficacies of the compounds against S. aureus (ATCC 6538) in chlorine-demand-free water were determine by using techniques employed previously in extensive detail by Williams et al., Appl. Environ. Microbial., 54:2583 (1987). Solutions containing 10^6 CFU final cell densities of bacteria were prepared and treated with the various disinfectant compounds described in examples 1-17 at either 5 or 10 milligrams/liter total chlorine concentration which was previously determined by titration using a stock solution with sodium thiosulfate. Aliquots were removed at several predetermined times, and the active halogen was quenched by sterile 0.02 normal sodium thiosulfate. Serial dilutions were made into sterile saline, and three 25 microliter aliquots of each dilution were applied to the dried surface of a Petri dish containing nutrient agar. After incubation at 37° C. for 48 hours, the three replicates for each dilution were counted and averaged. Control samples containing no disinfectant, or in some cases, unchlorinated precursor compounds, were handled in the same manner. […] Inactivation of the organism was considered to be at least 99.9999% when no colonies were detected in the thiosulfate-quenched aliquots.",
  "data": [
    {"smiles": "C=CC(=O)OCC1(CC)COC(=O)N1Br", "note": "(stereo not shown) [Polymer 1a-Br, 3-bromo-4-(acryloxymethyl)-4-ethyl-2-oxazolidinone]", "values": [
      {"measurement": "Contact Time for 6-log Inactivation of S. aureus", "value": "<5", "unit": "min"}
    ]}
  ]
}
